The values below come from US20230257351A1, “SUBSTITUTED N-[…] HAVING P2X4 RECEPTOR ANTAGONISTIC ACTIVITY” (Bayer Aktiengesellschaft, priority 2020, published 2023).

The test system of this assay is neuropathic mechanical allodynia induced by CCI surgery. The experiment in a line: Chronic Constriction Injury (CCI) Neuropathic Pain Model in Rats with Pain Behavior Read Out. The format is in vivo, male Sprague-Dawley rats. The settings on record: rat CCI; von Frey; gabapentin 100 mg/kg SID on days 0, 2, 5, 9; all post-dose time points. On the procedure: Aim of the study was to test the efficacy of example 68 at ameliorating neuropathic mechanical allodynia. Male Sprague-Dawley rats were subject to chronic constriction injury of the sciatic nerve to induce neuropathic pain. Of those rats, 10 per group were assigned to treatment conditions involving BID drug administration for 10 days and behavioral assessment of mechanical sensitivity for allodynia with von Frey testing (vF). Behavior was assessed pre- and postdosing on Days 0, 2, 5, and 9. Rats were treated with Vehicle or test article BID on days 0 through 9, and rats in the gabapentin treatment group received gabapentin SID on days 0, 2, 5, and 9 in conjunction with behavioral assessment.
As vehicle Solutol/DMSO/WFI (40/10/50) was employed. Application volume for the per oral administration was 10 ml/kg.
Neuropathy was induced in male Sprague-Dawley rats by tying four loose ligatures of chromic gut around the common sciatic nerve in deeply anesthetized rats like described in Bennett, G. J., and Y. K. Xie. “A Peripheral Mononeuropathy in Rat That Produces Disorders of Pain Sensation like Those Seen in Man.” Pain 33 (1988): 87-107.
Mechanical allodynia was measured using 8 Semmes-Weinstein filaments (Stoelting©; Wood Dale, Ill., USA) with varying stiffness (0.4, 0.6, 1.0, 2.0, 4.0, 6.0, 8.0, and 15 g) according to the up-down method1. Animals were placed in individual acrylic chambers on a metal mesh surface and allowed to acclimate to their surroundings for a minimum of 15 minutes before testing. Each filament was presented perpendicular to the plantar surface with sufficient force to cause slight buckling against the paw and held for approximately 6 seconds or until a positive response is noted (paw sharply withdrawn).
Testing was initiated with the 2.0 g filament. In the absence of a paw withdrawal response, the next stronger stimulus was presented. In the event of paw withdrawal, the next weaker stimulus was used. […]
The 50% response threshold is calculated using the formula: […]

In the case of `NCC1(CC(=O)O)CCCCC1` [Gabapentin, gabapentin, reference compound], the paw withdrawal thresholds result is given as “significantly increased paw withdrawal thresholds”.
